Experimental data taken from article PMC6419571, “Discovery and lead optimisation of a potent, selective and orally bioavailable RARβ agonist for the potential treatment of nerve injury” (Bioorganic & Medicinal Chemistry Letters, 2019).

How the values were obtained:
Solubility = type: physicochemical; conditions: pH 7.4, as the amorphous sodium salt
Cerebellar neurons = assay: Neurite outgrowth in cerebellar cultures on CHO-MAG monolayer; type: cell-based; conditions: 24 hr treatment, 1 × 10^−8–1 × 10^−6 M
Protocol: Compound 10 was evaluated for neurite outgrowth/branching in cerebellar cultures. Cerebellar cultures grown on a monolayer of CHO-MAG were treated with RARβ agonists and neurite outgrowth was assessed by immunostaining and neurite length quantification.[10]
Fig. 1 Effects of RARβ agonists 10 on neurite outgrowth. Cerebellar neurons grown on a monolayer of CHO-MAG cells were treated for 24 hr with either vehicle (V) or increasing doses of RARβ agonists (1 × 10^−8–1 × 10^−6 M). Both RARβ agonists increase neurite outgrowth in a dose dependant manner. Results are means from 3 independent experiments. Statistical analysis was done using Student’s t-test between vehicle and each drug’s highest dose. Error bars are SEM and **p ≤ 0.001, *p ≤ 0.01.

avulsed rats = assay: Rodent model of avulsion: sensory and locomotor tasks; type: in vivo, rat; conditions: 3 mg/kg, po, three times a week
Protocol: Rats were trained for two weeks prior to surgery in behavioural tasks and scores were recorded the day before surgery, the day after surgery and then weekly, for four weeks. Surgery was performed as previously described.[11], [12] In a sticky tape task, the time taken to sense and remove the tape from the paw of the lesioned forelimbs was measured. […] In locomotor tasks, the number of foot slips in a horizontal ladder made by the injured forelimb of the compound 10 treated rats was also measured. […] Further details and data on an in vivo model of crush injury will be presented in due course.
Fig. 2 Effects of oral administration of compound 10 in sensory and locomotor functions in avulsed rats. Dose 3 mg/kg, po, three times a week, every other day. Data represent mean ± SEM of n = 8, **p ≤ 0.005, ***p ≤ 0.001. Two-way repeated-measures ANOVA, Tukey’s post-hoc test.

three bacterial strains = type: cell-based
[1] = LogD by shake flask method; type: physicochemical; conditions: pH 7.4
HERG channels = HERG channels (Homo sapiens, UniProt Q12809); assay: Binding assay for HERG channels; conditions: at 10 μM
Pharmacokinetics in dog = type: in vivo; parameters: Volume distribution ss: unit not given here
Cyp450 2C9 = Cyp450 2C9 (Homo sapiens, UniProt P11712); assay: Cyp450 inhibition, 2C9; type: in vitro ADME; conditions: isoform 2C9
[2] = Mouse plasma protein binding; type: in vitro ADME
RARβ = biological target: T1, RARβ (Homo sapiens, UniProt P10826); assay: Transactivation against the human RAR ligand-binding domains; type: cell-based
T1 construct: expressed in transfected cells
T1 sequence (P10826 183-417 limits assumed): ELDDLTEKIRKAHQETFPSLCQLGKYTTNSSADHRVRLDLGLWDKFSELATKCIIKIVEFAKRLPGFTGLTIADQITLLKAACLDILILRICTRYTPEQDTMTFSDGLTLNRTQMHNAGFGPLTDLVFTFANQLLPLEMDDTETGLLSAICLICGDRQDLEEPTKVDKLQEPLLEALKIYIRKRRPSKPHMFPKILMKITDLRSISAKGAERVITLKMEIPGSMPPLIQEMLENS
Description: The more drug-like template present in 10 translates into a good in vitro and in vivo profile for this RARβ agonist (Table 5).

[3] = Human plasma protein binding; type: in vitro ADME

Chain of Cyp450 2C9 (P11712 whole entry, canonical isoform): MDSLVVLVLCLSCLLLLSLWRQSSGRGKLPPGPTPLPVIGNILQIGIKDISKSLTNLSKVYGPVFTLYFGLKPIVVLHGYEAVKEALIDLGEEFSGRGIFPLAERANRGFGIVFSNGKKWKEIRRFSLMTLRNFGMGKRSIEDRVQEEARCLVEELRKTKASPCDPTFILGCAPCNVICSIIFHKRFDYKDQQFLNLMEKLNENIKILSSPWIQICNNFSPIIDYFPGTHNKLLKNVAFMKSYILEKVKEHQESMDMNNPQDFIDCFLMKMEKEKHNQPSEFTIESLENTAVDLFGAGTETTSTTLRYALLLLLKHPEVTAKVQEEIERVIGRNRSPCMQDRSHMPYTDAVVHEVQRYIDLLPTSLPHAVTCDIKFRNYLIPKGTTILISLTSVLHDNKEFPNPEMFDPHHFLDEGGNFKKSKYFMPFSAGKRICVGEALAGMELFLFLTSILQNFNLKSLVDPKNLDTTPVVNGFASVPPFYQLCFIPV
Chain of HERG channels (Q12809 whole entry): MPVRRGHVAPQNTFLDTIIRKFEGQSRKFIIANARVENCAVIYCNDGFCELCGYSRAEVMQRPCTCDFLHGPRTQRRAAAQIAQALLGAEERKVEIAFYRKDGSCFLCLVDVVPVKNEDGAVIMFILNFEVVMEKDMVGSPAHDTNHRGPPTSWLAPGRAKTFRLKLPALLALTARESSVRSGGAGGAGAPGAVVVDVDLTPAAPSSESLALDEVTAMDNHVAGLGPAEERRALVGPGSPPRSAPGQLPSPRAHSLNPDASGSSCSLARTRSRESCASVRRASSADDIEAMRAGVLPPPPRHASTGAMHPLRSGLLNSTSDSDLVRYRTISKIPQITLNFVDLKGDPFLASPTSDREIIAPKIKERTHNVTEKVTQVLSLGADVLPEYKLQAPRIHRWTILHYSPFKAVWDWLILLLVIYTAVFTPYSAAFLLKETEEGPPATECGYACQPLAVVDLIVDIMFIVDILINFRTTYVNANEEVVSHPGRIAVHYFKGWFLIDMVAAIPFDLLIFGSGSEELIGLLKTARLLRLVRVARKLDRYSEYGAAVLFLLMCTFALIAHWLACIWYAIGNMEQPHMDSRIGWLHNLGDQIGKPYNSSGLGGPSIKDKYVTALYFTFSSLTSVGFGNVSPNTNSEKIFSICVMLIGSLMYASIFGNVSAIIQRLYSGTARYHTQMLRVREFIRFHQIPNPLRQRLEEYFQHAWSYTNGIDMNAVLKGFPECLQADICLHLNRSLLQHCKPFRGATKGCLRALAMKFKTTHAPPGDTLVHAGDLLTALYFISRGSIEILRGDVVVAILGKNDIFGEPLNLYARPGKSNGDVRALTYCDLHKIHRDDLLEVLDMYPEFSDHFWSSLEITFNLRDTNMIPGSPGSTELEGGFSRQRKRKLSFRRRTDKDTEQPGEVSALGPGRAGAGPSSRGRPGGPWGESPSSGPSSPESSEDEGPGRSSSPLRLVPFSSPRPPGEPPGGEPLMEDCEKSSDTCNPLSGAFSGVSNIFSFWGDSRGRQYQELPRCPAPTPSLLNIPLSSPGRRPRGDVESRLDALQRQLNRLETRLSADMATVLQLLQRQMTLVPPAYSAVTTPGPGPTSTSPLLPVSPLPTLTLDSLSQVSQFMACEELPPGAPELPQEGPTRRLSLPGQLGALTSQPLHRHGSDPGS

Cc1ccc(C)c2oc(-c3nc(-c4ccc(C(=O)O)cc4)no3)cc12 [Compound 10, 4-(5-(4,7-dimethylbenzofuran-2-yl)-1,2,4-oxadiazol-3-yl)benzoic acid]
solubility (Solubility): > 100 µM
neurite length / outgrowth (Cerebellar neurons): increased neurite length in a dose dependant manner
sticky tape task latency (sense and remove tape), injured forelimb vs vehicle (avulsed rats; from week three): significantly lower latencies
number of foot slips in horizontal ladder, injured forelimb vs vehicle (avulsed rats; from week two): markedly lower
Ames test result (three bacterial strains): inactive
logD [1]: 2.8
HERG channel binding inhibition (HERG channels): no inhibition
t1/2 (Pharmacokinetics in dog): 2.5 h
clearance (Pharmacokinetics in dog; blood, iv dose 0.5 mg/kg): 1.1 mL/min/kg
bioavailability (Pharmacokinetics in dog; in vivo, po, 3 mg/kg, dogs): > 40%
Volume distribution ss (Pharmacokinetics in dog; iv dose 0.5 mg/kg): 0.23
Fraction absorbed (Pharmacokinetics in dog; oral 3 mg/kg vs iv 0.5 mg/kg): 45%
Tmax (Pharmacokinetics in dog; oral dose 3 mg/kg): 1.0 h
IC50 (Cyp450 2C9): > 25000 nM
fraction unbound [2]: 0.05
fold selectivity for RARβ over RARα (RARβ): 23 fold
fold selectivity for RARβ over RARγ (RARβ): 5 fold
EC50 (RARβ; read-out: RARβ potency EC50): 2.05 nM
fraction unbound [3]: 0.02
